Measurements as given in article PMC4980415 (Psychopharmacology, 2016).
Counter-ions that a name gives are not always drawn. Like-named read-outs stand apart in the source and are kept apart here.

Columns and labels:
[1] = test system: late memory consolidation in male Wistar rats; assay: Novel object recognition (NOR): late consolidation, drug 3 h after T1; assay type: in vivo, rat; details: for Exploration time e1 (T1) / Exploration time e2 (T2): 3 h after T1
Description: (§1) The drug was administered, per os (po), by gavage to rats in a volume of 2 ml/kg body weight. Oral dosing solutions were prepared fresh daily. […] The pH of the dosing solution was adjusted to ~pH 5.5 by dropwise addition of 0.1 N NaOH in saline and volume adjusted by addition of saline in preparation for intraperitoneal (ip) dosing. […] Control treatments were always the vehicle solutions of the corresponding drugs.
(§2) The object recognition test was performed as described elsewhere (Ennaceur and Delacour [1988]; Akkerman et al. 2014). The apparatus consisted of a circular arena, 83 cm in diameter. Half of the 40-cm-high wall was made of gray polyvinyl chloride, the other half of transparent polyvinyl chloride. The light intensity was equal in the different parts of the apparatus, as fluorescent red tubes provided a constant illumination of about 20 lx on the floor of the apparatus. Two objects were placed in a symmetrical position at about 10 cm from the gray wall. Four different sets of objects were used. The different objects were (1) a cone consisting of a gray polyvinyl chloride base (maximal diameter 18 cm) with a collar on top made of brass (total height 16 cm), (2) a standard 1 L transparent glass bottle (diameter 10 cm, height 22 cm) filled with water, (3) a large metal cube (10.0 × 5.0 × 7.5 cm) with two holes (diameter 1.9 cm), and (4) a large aluminum cube with a tapering top (13.0 × 8.0 × 8.0 cm). The objects used in this study were carefully selected to be “novelty neutral,” that is to say the rats have no innate preference for one over the other. In all cases, objects were of sufficient size and weight that rats could not move the objects.
(§3) A testing session consisted of two trials. The duration of each trial was 3 min. During the first trial (T1), the apparatus contained two identical objects (samples). Rats were placed in the apparatus facing the wall at the middle of the front (transparent) segment. After the first exploration period, the rat was put back in its home cage. Subsequently, after a 24-h delay interval, the rat was put in the apparatus for the second trial (T2). The times spent in exploring each object during T1 and T2 were recorded manually using a personal computer.
(§4) Exploration was defined as follows: directing the nose to the object at a distance of no more than 2 cm and/or touching the object with the nose. Sitting on the object was not considered as exploratory behavior. In order to avoid the presence of olfactory cues, the objects were always thoroughly cleaned with a 70 % ethanol solution before each trial. All combinations and locations of objects were used in a balanced manner to reduce potential biases due to preferences for particular locations or objects.
(§5) During the first 2 weeks after animal arrival, the animals were handled daily. They were then adapted to the procedure over the period of 2 days by allowing them to explore the apparatus (without any objects) for 3 min twice each day. […] After this, the rats were assigned to treatment conditions in a balanced manner, thereby insuring an equal distribution of object combinations among the treatment conditions. […] In all experiments, a 24-h inter-trial interval was used. In all cases, the experimenter was unaware of the treatment conditions that were being tested.
(§6) The basic measure recorded was the time spent by each rat exploring an object during T1 and T2. The time spent in exploring the two identical samples was represented by “a1” and “a2.” The time spent in T2 in exploring the sample and new object was represented by “a” and “b,” respectively. The following variables were calculated: e1 = a1 + a2, e2 = a + b, and d2 = (b − a) / e2. The e1 and e2 are measures of the total exploration time of both objects during T1 and T2, respectively. Differences in exploration times between treatment conditions were analyzed using a t test or one-way ANOVA. […]

[2] = Pharmacokinetics of ITI-214 in rats; assay type: in vivo; details: rat, oral; for concentration at 2 h: 3 mg/kg
Excerpt: Standard methods of tissue extraction were used.

[3] = target: PDE1 (bovine brain); assay: PDE activity IMAP assay, bovine brain PDE1; assay type: biochemical; details: Fl-cGMP substrate, CaCl2/calmodulin
[4] = target: T1, NK3 (h), neurokinin (Homo sapiens, UniProt P29371); assay: Off-target binding, General SEP II panel; details: 10 μM ITI-214, mean of n = 2
T1 construct: Caliper Life Sciences (contract screen)
T1 sequence (P29371 1-465): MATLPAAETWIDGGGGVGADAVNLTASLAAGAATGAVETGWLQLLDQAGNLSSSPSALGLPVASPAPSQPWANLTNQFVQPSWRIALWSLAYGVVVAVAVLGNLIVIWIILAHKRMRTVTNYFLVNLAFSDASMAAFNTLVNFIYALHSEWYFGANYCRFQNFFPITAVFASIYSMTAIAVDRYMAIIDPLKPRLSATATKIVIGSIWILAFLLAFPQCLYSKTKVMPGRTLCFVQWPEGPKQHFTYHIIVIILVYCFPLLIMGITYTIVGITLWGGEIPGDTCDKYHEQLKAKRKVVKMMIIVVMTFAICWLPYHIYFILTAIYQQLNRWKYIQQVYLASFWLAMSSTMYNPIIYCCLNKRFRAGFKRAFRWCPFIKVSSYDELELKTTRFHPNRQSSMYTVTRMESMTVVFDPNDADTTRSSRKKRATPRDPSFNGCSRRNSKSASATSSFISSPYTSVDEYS

[5] = test system: memory acquisition in male Wistar rats; assay: Novel object recognition (NOR): acquisition, drug 2 h before T1; assay type: in vivo, rat; details: for Exploration time e1 (T1) / Exploration time e2 (T2): 2 h before T1, 24 h interval
Description: as §1, §2, §3, §4, §5, §6

[6] = test system: Alpha 1 (non-selective), adrenergic; assay: Off-target binding, General SEP II panel; details: 10 μM ITI-214, mean of n = 2
[7] = test system: early memory consolidation in male Wistar rats; assay: Novel object recognition (NOR): early consolidation, drug 4 min after T1; assay type: in vivo, rat; details: 4 min after T1 (head prints T2 +4 min)
Description: as §1, §2, §3, §4, §5, §6

[8] = test system: memory acquisition and retrieval in male Wistar rats; assay: Novel object recognition (NOR): suboptimal doses 2 h before T1 and T2; assay type: in vivo, rat
Description: as §1
The object recognition test was performed as described elsewhere (Ennaceur and Delacour [1988]; Akkerman et al. 2014). The apparatus consisted of a circular arena, 83 cm in diameter. Half of the 40-cm-high wall was made of gray polyvinyl chloride, the other half of transparent polyvinyl chloride. The light intensity was equal in the different parts of the apparatus, as fluorescent red tubes provided a constant illumination of about 20 lx on the floor of the apparatus. Two objects were placed in a symmetrical position at about 10 cm from the gray wall. Four different sets of objects were used. The different objects were (1) a cone consisting of a gray polyvinyl chloride base (maximal diameter 18 cm) with a collar on top made of brass (total height 16 cm), (2) a standard 1 L transparent glass bottle (diameter 10 cm, height 22 cm) filled with water, (3) a large metal cube (10.0 × 5.0 × 7.5 cm) with two holes (diameter 1.9 cm), and (4) a large aluminum cube with a tapering top (13.0 × 8.0 × 8.0 cm). The objects used in this study were carefully selected to be “novelty neutral,” that is to say the rats have no innate preference for one over the other. […]
A testing session consisted of two trials. […] The times spent in exploring each object during T1 and T2 were recorded manually using a personal computer. […]
The basic measure recorded was the time spent by each rat exploring an object during T1 and T2. […] The following variables were calculated: e1 = a1 + a2, e2 = a + b, and d2 = (b − a) / e2. […] Differences in exploration times between treatment conditions were analyzed using a t test or one-way ANOVA. […]

[9] = target: T2, NK1 (h), neurokinin (Homo sapiens, UniProt P25103); assay: Off-target binding, General SEP II panel; details: 10 μM ITI-214, mean of n = 2
T2 construct: Caliper Life Sciences (contract screen)
T2 sequence (P25103 whole entry): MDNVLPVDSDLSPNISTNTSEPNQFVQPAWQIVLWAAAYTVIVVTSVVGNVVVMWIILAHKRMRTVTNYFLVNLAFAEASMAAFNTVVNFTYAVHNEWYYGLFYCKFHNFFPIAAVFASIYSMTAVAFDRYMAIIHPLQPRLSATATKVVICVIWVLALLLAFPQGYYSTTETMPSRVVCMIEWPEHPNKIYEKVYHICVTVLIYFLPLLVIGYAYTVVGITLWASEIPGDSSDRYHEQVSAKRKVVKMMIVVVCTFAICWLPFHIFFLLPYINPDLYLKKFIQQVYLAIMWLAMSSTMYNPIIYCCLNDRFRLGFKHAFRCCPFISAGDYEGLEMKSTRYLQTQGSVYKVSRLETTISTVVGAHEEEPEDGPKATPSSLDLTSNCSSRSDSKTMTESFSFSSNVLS

[10] = 0.3 mg/kg 2 h before T1 and 0.1 mg/kg 2 h before T2, po

## CN1C(=O)c2c(nn(Cc3ccc(-c4cccc(F)n4)cc3)c2Nc2ccccc2)N2C1=N[C@@H]1CCC[C@@H]12 [ITI-214, (6aR,9aS)-2-(4-(6-fluoropyridin-2-yl)benzyl)-5-methyl-3-(phenylamino)-5,6a,7,8,9,9a-hexahydrocyclopenta-[4,5]imidazo[1,2-a]pyrazolo[4,3-e]pyrimidin-4-(2H)-one phosphate salt]
[1]; 0.1 mg/kg po
  Exploration time e1 (T1): 26.20 (1.95) s
  Exploration time e2 (T2): 32.81 (2.24) s
[1]; 0.3 mg/kg po
  Exploration time e1 (T1): 29.36 (3.22) s
  Exploration time e2 (T2): 29.64 (2.15) s
[1]; 1 mg/kg po
  Exploration time e1 (T1): 25.93 (1.53) s
  Exploration time e2 (T2): 27.86 (2.43) s
[1]; 3 mg/kg po
  Exploration time e1 (T1): 25.62 (1.89) s
  Exploration time e2 (T2): 28.34 (2.95) s
[1]; early and late consolidation experiments
  effect on exploratory behavior: no effects on exploratory behavior
[1]; po 3 h after T1
  full effective dose (d2 different from chance and from vehicle), late consolidation: 1 mg/kg
[2]; brain
  Tmax: ~1.5 h
[2]; brain, plasma levels associated with optimal effects on acquisition, read-out: brain free fraction estimated
  concentration at 2 h: 0.12 nM
[2]; plasma, 2 h after drug administration, N = 12 rats, read-out: plasma level
  concentration at 2 h: 30.1 ± 13.4 ng/mL
[2]; plasma, 2 h after drug administration, read-out: free plasma concentration
  concentration at 2 h: 0.12 nM
[3]
  Ki: 58 pM
[4]
  % Binding: 64.65%
[5]; 0.1 mg/kg po
  Exploration time e1 (T1): 28.38 (1.86) s
  Exploration time e2 (T2): 27.33 (1.48) s
[5]; 0.3 mg/kg po
  Exploration time e1 (T1): 27.55 (1.62) s
  Exploration time e2 (T2): 26.10 (1.69) s
[5]; 1 mg/kg po
  Exploration time e1 (T1): 27.97 (1.78) s
  Exploration time e2 (T2): 29.38 (1.38) s
[5]; 3 mg/kg po
  Exploration time e1 (T1): 27.28 (1.74) s
  Exploration time e2 (T2): 28.73 (1.62) s
[5]; 10 mg/kg po
  Exploration time e1 (T1): 26.21 (1.97) s
  Exploration time e2 (T2): 28.15 (1.38) s
[5]; 0.1–10 mg/kg po 2 h before T1
  effect on exploratory behavior during T1 or T2: no effect on exploratory behavior
[6]
  % Binding: 40.90%
[7]; 1 mg/kg po
  Exploration time e1 (T1): 26.36 (1.93) s
  Exploration time e2 (T2): 29.66 (1.94) s
[7]; 3 mg/kg po
  Exploration time e1 (T1): 25.02 (2.20) s
  Exploration time e2 (T2): 30.55 (1.84) s
[7]; 10 mg/kg po
  Exploration time e1 (T1): 30.01 (1.62) s
  Exploration time e2 (T2): 31.35 (1.71) s
[8]; [10]
  Exploration time e1 (T1): 30.43 (2.16) s
  Exploration time e2 (T2): 28.78 (1.26) s
[8]; 0.3 mg/kg 2 h before T1 plus 0.1 mg/kg 2 h before T2, different from chance and vehicle, p < 0.001
  effect on discrimination behavior (d2), combined sub-effective doses: full increase in discrimination behavior
[9]
  % Binding: 30.93%
